Key:
[1] = tested on: KPC-2 producing K. pneumoniae (ATCC BAA-1705); assay: Synergistic broth micro-dilution MIC (checkerboard); type: cell-based, Klebsiella pneumoniae; conditions: ATCC BAA-1705
[2] = tested on: K. pneumoniae UMM3 (KPC2); assay: Synergistic broth micro-dilution MIC; type: cell-based, Klebsiella pneumoniae; conditions: BLI at 4 μg/mL
[3] = tested on: E. cloacae 01 MGH 049 (KPC2, AmpC); assay: Synergistic broth micro-dilution MIC; type: cell-based; conditions: BLI at 4 μg/mL
[4] = tested on: KPC-3 expressing E. coli (J53 R6206); assay: Synergistic broth micro-dilution MIC (checkerboard); type: cell-based, Escherichia coli
[5] = tested on: E. coli BAA-201 (TEM-3); assay: MIC of Piperacillin with inhibitor, ESBL isolates; type: cell-based
[6] = tested on: E. coli BAA-197 (TEM-12); assay: MIC of Piperacillin with inhibitor, ESBL isolates; type: cell-based, Escherichia coli
[7] = tested on: P. mirabilis BAA-663 (TEM-89); assay: MIC of Piperacillin with inhibitor, ESBL isolates; type: cell-based
[8] = tested on: E. coli BAA-199 (SHV-3); assay: MIC of Piperacillin with inhibitor, ESBL isolates; type: cell-based, Escherichia coli
[9] = tested on: E. coli BAA-200 (SHV-4); assay: MIC of Piperacillin with inhibitor, ESBL isolates; type: cell-based, Escherichia coli

C[C@]1(Cn2ccnn2)[C@H](C(=O)O)N2C(=O)C[C@H]2S1(=O)=O [Tazobactam]
MIC of Cefquinome in combination with BLI ([1]; BLI at 1 μg/mL): >64 µg/mL
MIC of Ceftiofur in combination with BLI ([1]; BLI at 1 μg/mL): >64 µg/mL
MIC of Cefepime in combination with BLI ([1]; BLI at 2 μg/mL): 64 µg/mL
MIC of Cefotaxime in combination with BLI ([1]; BLI at 2 μg/mL): ≥64 µg/mL
MIC of Cefquinome in combination with BLI ([1]; BLI at 2 μg/mL): >64 µg/mL
MIC of Ceftazidime in combination with BLI ([1]; BLI at 2 μg/mL): >64 µg/mL
MIC of Ceftiofur in combination with BLI ([1]; BLI at 2 μg/mL): >64 µg/mL
MIC of Ceftobiprole in combination with BLI ([1]; BLI at 2 μg/mL): >64 µg/mL
MIC of Imipenem in combination with BLI ([1]; BLI at 2 μg/mL): 16 µg/mL
MIC of Meropenem in combination with BLI ([1]; BLI at 2 μg/mL): 32 µg/mL
MIC of Aztreonam in combination with BLI ([1]; BLI at 4 μg/mL): >64 µg/mL
MIC of Cefadroxil in combination with BLI ([1]; BLI at 4 μg/mL): >64 µg/mL
MIC of Cefalonium in combination with BLI ([1]; BLI at 4 μg/mL): >64 µg/mL
MIC of Cefepime in combination with BLI ([1]; BLI at 4 μg/mL): 64 µg/mL
MIC of Cefotaxime in combination with BLI ([1]; BLI at 4 μg/mL): 32 to 64 µg/mL
MIC of Cefquinome in combination with BLI ([1]; BLI at 4 μg/mL): >64 µg/mL
MIC of Ceftazidime in combination with BLI ([1]; BLI at 4 μg/mL): >64 µg/mL
MIC of Ceftiofur in combination with BLI ([1]; BLI at 4 μg/mL): >64 µg/mL
MIC of Ceftobiprole in combination with BLI ([1]; BLI at 4 μg/mL): >64 µg/mL
MIC of Ertapenem in combination with BLI ([1]; BLI at 4 μg/mL): >64 µg/mL
MIC of Faropenem in combination with BLI ([1]; BLI at 4 μg/mL): >64 µg/mL
MIC of Imipenem in combination with BLI ([1]; BLI at 4 μg/mL): 16 µg/mL
MIC of Meropenem in combination with BLI ([1]; BLI at 4 μg/mL): 32 µg/mL
MIC of Cefepime in combination with BLI ([1]; BLI at 8 μg/mL): 32 µg/mL
MIC of Cefotaxime in combination with BLI ([1]; BLI at 8 μg/mL): 32 µg/mL
MIC of Cefquinome in combination with BLI ([1]; BLI at 8 μg/mL): 64 µg/mL
MIC of Ceftazidime in combination with BLI ([1]; BLI at 8 μg/mL): >64 µg/mL
MIC of Ceftiofur in combination with BLI ([1]; BLI at 8 μg/mL): >64 µg/mL
MIC of Ceftobiprole in combination with BLI ([1]; BLI at 8 μg/mL): >64 µg/mL
MIC of Ertapenem in combination with BLI ([1]; BLI at 8 μg/mL): >64 µg/mL
MIC of Faropenem in combination with BLI ([1]; BLI at 8 μg/mL): >64 µg/mL
MIC of Imipenem in combination with BLI ([1]; BLI at 8 μg/mL): 8 to 16 µg/mL
MIC of Meropenem in combination with BLI ([1]; BLI at 8 μg/mL): 16 to 32 µg/mL
MIC of Aztreonam in combination with BLI ([1]; BLI at 16 μg/mL): >64 µg/mL
MIC of Cefadroxil in combination with BLI ([1]; BLI at 16 μg/mL): >64 µg/mL
MIC of Cefalonium in combination with BLI ([1]; BLI at 16 μg/mL): >64 µg/mL
MIC of Cefepime in combination with BLI ([1]; BLI at 16 μg/mL): 32 µg/mL
MIC of Cefotaxime in combination with BLI ([1]; BLI at 16 μg/mL): 32 µg/mL
MIC of Cefquinome in combination with BLI ([1]; BLI at 16 μg/mL): 64 µg/mL
MIC of Ceftazidime in combination with BLI ([1]; BLI at 16 μg/mL): >64 µg/mL
MIC of Ceftiofur in combination with BLI ([1]; BLI at 16 μg/mL): >64 µg/mL
MIC of Ceftobiprole in combination with BLI ([1]; BLI at 16 μg/mL): >64 µg/mL
MIC of Ertapenem in combination with BLI ([1]; BLI at 16 μg/mL): 64 µg/mL
MIC of Faropenem in combination with BLI ([1]; BLI at 16 μg/mL): >64 µg/mL
MIC of Imipenem in combination with BLI ([1]; BLI at 16 μg/mL): 8 µg/mL
MIC of Meropenem in combination with BLI ([1]; BLI at 16 μg/mL): 8 to 16 µg/mL
MIC of Cefquinome in combination with BLI ([1]; BLI at 32 μg/mL): 64 µg/mL
MIC of Ceftiofur in combination with BLI ([1]; BLI at 32 μg/mL): 64 µg/mL
MIC of Aztreonam in combination with BLI ([1]; BLI at 64 μg/mL): >64 µg/mL
MIC of Cefadroxil in combination with BLI ([1]; BLI at 64 μg/mL): >64 µg/mL
MIC of Cefalonium in combination with BLI ([1]; BLI at 64 μg/mL): >64 µg/mL
MIC of Cefepime in combination with BLI ([1]; BLI at 64 μg/mL): 32 µg/mL
MIC of Cefotaxime in combination with BLI ([1]; BLI at 64 μg/mL): 32 µg/mL
MIC of Cefquinome in combination with BLI ([1]; BLI at 64 μg/mL): 64 µg/mL
MIC of Ceftazidime in combination with BLI ([1]; BLI at 64 μg/mL): 64 µg/mL
MIC of Ceftiofur in combination with BLI ([1]; BLI at 64 μg/mL): 64 µg/mL
MIC of Ceftobiprole in combination with BLI ([1]; BLI at 64 μg/mL): >64 µg/mL
MIC of Ertapenem in combination with BLI ([1]; BLI at 64 μg/mL): 32 µg/mL
MIC of Faropenem in combination with BLI ([1]; BLI at 64 μg/mL): >64 µg/mL
MIC of Imipenem in combination with BLI ([1]; BLI at 64 μg/mL): 4 to 8 µg/mL
MIC of Meropenem in combination with BLI ([1]; BLI at 64 μg/mL): 4 µg/mL
MIC of Imipenem in combination with BLI [2]: 4 µg/mL
MIC of Imipenem in combination with BLI [3]: 8 µg/mL
MIC of Cefepime in combination with BLI ([4]; BLI at 2 μg/mL): 16 µg/mL
MIC of Cefotaxime in combination with BLI ([4]; BLI at 2 μg/mL): 8 µg/mL
MIC of Ceftazidime in combination with BLI ([4]; BLI at 2 μg/mL): 32 µg/mL
MIC of Ceftobiprole in combination with BLI ([4]; BLI at 2 μg/mL): 32 µg/mL
MIC of Imipenem in combination with BLI ([4]; BLI at 2 μg/mL): 2 µg/mL
MIC of Meropenem in combination with BLI ([4]; BLI at 2 μg/mL): 1 µg/mL
MIC of Cefepime in combination with BLI ([4]; BLI at 4 μg/mL): 8 µg/mL
MIC of Cefotaxime in combination with BLI ([4]; BLI at 4 μg/mL): 8 µg/mL
MIC of Ceftazidime in combination with BLI ([4]; BLI at 4 μg/mL): 32 µg/mL
MIC of Ceftobiprole in combination with BLI ([4]; BLI at 4 μg/mL): 16 µg/mL
MIC of Imipenem in combination with BLI ([4]; BLI at 4 μg/mL): 2 µg/mL
MIC of Meropenem in combination with BLI ([4]; BLI at 4 μg/mL): 0.5 µg/mL
MIC of Cefepime in combination with BLI ([4]; BLI at 8 μg/mL): 4 µg/mL
MIC of Cefotaxime in combination with BLI ([4]; BLI at 8 μg/mL): 4 µg/mL
MIC of Ceftazidime in combination with BLI ([4]; BLI at 8 μg/mL): 32 µg/mL
MIC of Ceftobiprole in combination with BLI ([4]; BLI at 8 μg/mL): 16 µg/mL
MIC of Imipenem in combination with BLI ([4]; BLI at 8 μg/mL): 1 µg/mL
MIC of Meropenem in combination with BLI ([4]; BLI at 8 μg/mL): 0.5 µg/mL
MIC of Imipenem in combination with BLI ([4]; BLI at 16 μg/mL): 1 µg/mL
MIC of Meropenem in combination with BLI ([4]; BLI at 16 μg/mL): <0.125 µg/mL
MIC ([4]; Escherichia coli, read-out: MIC of BLI alone, BLI alone): > 8 µg/mL
MIC of Piperacillin with inhibitor ([5]; inhibitor at 1 μg/mL): 4 µg/mL
MIC of Piperacillin with inhibitor ([5]; inhibitor at 2 μg/mL): 4 µg/mL
MIC of Piperacillin with inhibitor ([5]; inhibitor at 4 μg/mL): 2 µg/mL
MIC of Piperacillin with inhibitor ([6]; inhibitor at 1 μg/mL): 64 µg/mL
MIC of Piperacillin with inhibitor ([6]; inhibitor at 2 μg/mL): 8 µg/mL
MIC of Piperacillin with inhibitor ([6]; inhibitor at 4 μg/mL): 4 µg/mL
MIC of Piperacillin with inhibitor ([7]; inhibitor at 1 μg/mL): 8 µg/mL
MIC of Piperacillin with inhibitor ([7]; inhibitor at 2 μg/mL): 8 µg/mL
MIC of Piperacillin with inhibitor ([7]; inhibitor at 4 μg/mL): 4 µg/mL
MIC of Piperacillin with inhibitor ([8]; inhibitor at 1 μg/mL): >128 µg/mL
MIC of Piperacillin with inhibitor ([8]; inhibitor at 2 μg/mL): >128 µg/mL
MIC of Piperacillin with inhibitor ([8]; inhibitor at 4 μg/mL): >128 µg/mL
MIC of Piperacillin with inhibitor ([9]; inhibitor at 1 μg/mL): >128 µg/mL
MIC of Piperacillin with inhibitor ([9]; inhibitor at 2 μg/mL): >128 µg/mL
MIC of Piperacillin with inhibitor ([9]; inhibitor at 4 μg/mL): 4 µg/mL
